Counter-ions that a name gives are not always drawn.
Tested on: Danio rerio larvae Tg(actc1b:ZsGreen-LC3), 3 dpf
Assay: LC3 puncta relative area vs vehicle (mean) (log2 fold change); higher = more autophagy
Settings: treatment time 16 h
Experimental: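 Transgenic ZsGreen-LC3 zebrafish larvae (2 dpf) were treated for 16 h with natural bioactives at 10, 50, 100 or 250 µM. Skeletal-muscle LC3 puncta area was measured by high-content imaging with or without 4 h of 100 mM NH4Cl, normalised to vehicle, and reported as the mean log2 fold change over 4–21 larvae.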

Row | Compound | LC3 puncta (log2) (NH4Cl: + NH4Cl, 10 µM) | LC3 puncta (log2) (NH4Cl: + NH4Cl, 50 µM) | LC3 puncta (log2) (NH4Cl: + NH4Cl, 100 µM) | LC3 puncta (log2) (NH4Cl: + NH4Cl, 250 µM) | LC3 puncta (log2) (NH4Cl: - NH4Cl, 10 µM) | LC3 puncta (log2) (NH4Cl: - NH4Cl, 50 µM) | LC3 puncta (log2) (NH4Cl: - NH4Cl, 100 µM) | LC3 puncta (log2) (NH4Cl: - NH4Cl, 250 µM)
1 | O=C(O)CC(O)(CC(=O)O)C(=O)O [Citric acid] | 0.486 | 0.837 | -0.0949 | -0.815 | -0.0291 | -0.364 | 0.353 | 0.401
2 | CC(O)CC(=O)O (racemic) [DL-ß-Hydroxybutyric acid sodium salt] | -0.181 | 0.231 | 0.389 | 0.588 | 0.151 | -0.288 | 0.0785 | 0.0274
3 | CCCC(=O)[O-].[Na+] [Butyric acid sodium salt] | 0.256 | 0.65 | 0.615 | 0.513 | 0.036 | 0.362 | 0.26 | -0.0615
4 | O=C(O)c1cccnc1 [Nicotinic acid] | 0.718 | 0.758 | 0.79 | 0.941 | 0.0747 | 0.284 | 0.456 | 0.418
5 | O=C(O)CCC(=O)O [Succinic acid] | 0.752 | 0.769 | 0.297 | 0.806 | 0.044 | 0.06 | -0.705 | -0.0293
6 | O=C(O[C@@H]1Cc2c(O)cc(O)cc2O[C@@H]1c1ccc(O)c(O)c1)c1cc(O)c(O)c(O)c1 [(-)-Epicatechin gallate] | 0.221 | 0.493 | 0.661 |  | -0.0294 | 0.253 | 0.0524 | 
7 | N[C@H]1C(O)O[C@H](CO)[C@@H](O)[C@@H]1O (stereo partly drawn) [D-glucosamine] | 0.082 | 0.412 | 0.454 | 0.285 | 0.0603 | 0.0831 | 0.218 | 0.352
8 | CC(O)CC(=O)O (stereo not drawn) [3-Hydroxybutyrate] | 0.306 | 0.707 | 0.353 | 0.884 | 0.219 | 0.327 | 0.00999 | 0.0766
9 | CC(=O)OC/C=C(C)/C=C/C=C(C)/C=C/C1=C(C)CCCC1(C)C [Retinol acetate] | 0.716 | 0.504 | 0.948 | 1.18 | 0.543 | 0.167 | 0.303 | 1.12
10 | CC1=C(/C=C/C(C)=C/C=C/C(C)=C/CO)C(C)(C)CCC1 [Retinol] | 1.19 | 0.124 | 0.0946 |  | 0.12 | -0.269 | 0.255 | 0.596
11 | C[C@@H]1O[C@@H](OC[C@H]2O[C@@H](Oc3c(-c4ccc(O)c(O)c4)oc4cc(O)cc(O)c4c3=O)[C@H](O)[C@@H](O)[C@@H]2O)[C@H](O)[C@H](O)[C@H]1O [Rutin hydrate] | 0.351 | 0.0277 | 0.401 | 0.491 | -0.169 | -0.116 | 0.291 | 0.18
12 | Cc1ccc(C(C)C)cc1O [Carvacrol] | 0.565 | 1.07 | 1.84 | 1.67 | 0.493 | 0.93 | 1.08 | 1.92

From the supplement of paper PMC12532568
